Measurements from article PMC7570662, “In Vivo Pharmacokinetic Analysis Utilizing Non-Targeted and Targeted Mass Spectrometry and In Vitro Assay against Transient Receptor Potential Channels of Maobushisaishinto and Its Constituent Asiasari Radix” (Molecules, 2020).
Where two headings read alike, the source gives them in different places.

Assays:
[1] = Quantitative targeted LC-MS/MS pharmacokinetics of AR ingredients in rat plasma after oral MBST; assay type: in vivo
Description: Seven-week-old male Sprague-Dawley rats were purchased from Charles River Laboratories (Yokohama, Japan) and Japan SLC (Hamamatsu, Japan). The animals were housed under a temperature of 23 °C ± 3 °C and relative humidity of 50% ± 20%, with 12-h/12-h light/dark cycle and allowed free access to water and standard laboratory food (MF, Oriental Yeast Co., Ltd., Tokyo, Japan). The animals were used in experiments following habituation for several days.
Extract powders of AR or MBST were suspended in distilled water and orally administered to rats having fasted for approximately 16 h. The dose of AR was set at 2 g/kg, and the MBST doses were set at 1 and 2 g/kg. 1 g/kg MBST contained 578 µg/kg, 147 µg/kg, 226 µg/kg, 426 µg/kg asarinin, sesamin, methyl kakuol, and amide A, respectively. The doses were chosen based on a previous pharmacological study of MBST using rats.
Blood samples were centrifuged at 1700× g at 4 °C for 15 min to obtain plasma, of which samples were then stored at ≤−75 °C until analysis.
To quantify the plasma concentration of the AR components identified by the non-targeted analysis, the plasma samples at 0–24 h after MBST administration (1 or 2 g/kg) were supplied to targeted LC-MS/MS analysis in SRM mode with electrospray ionization.
For the quantification of methyl kakuol, amide A, asarinin, and sesamin in plasma, 100 µL of MBST-treated rat plasma was mixed with 20 µL of methanol (as the vehicle of the working solution described below) and 20 µL of internal standard niflumic acid (2 or 20 ng/mL). To prepare the calibration curve, the same volumes of blank plasma and various concentrations of working solution (final plasma concentration, 0.02–200 ng/mL) were used instead of the MBST-treated rat plasma and methanol. Finally, 500 µL of methanol was added for deproteinization. The mixture was centrifuged at 7000× g at 4 °C for 5 min. The supernatant was dried using a centrifugal evaporator. The dried residue was dissolved in 60 or 80 μL of the initial LC mobile phase which was composed of 5 mmol/L ammonium acetate in water/methanol (70/30, v/v), and then, a 5 or 10 μL aliquot was injected into the LC-MS/MS system. The injected sample was chromatographically separated using a YMC-Pack ODS-AQ column (2.0 ×150 mm I.D., 3-μm particle size; GL Sciences, Tokyo, Japan) at 30 °C. The mobile phase consisted of solution A (5 mmol/L ammonium acetate) as well as solution B (methanol), with a gradient of solution B (30%, 0 min; 70%, 25 min; 95%, 25.01–30 min; 30%, 30.01–35 min; v/v) at a flow rate of 0.3 mL/min. In brief, the compounds were analyzed using optimal MS/MS parameters as follows: methyl kakuol (m/z 209.056/176.1), amide A (m/z 248.174/57.1), asarinin (m/z 372.123/173.1), and sesamin (m/z 372.118/233.1). The calibration ranges for methyl kakuol, amide A, asarinin, and sesamin were 0.5–100 ng/mL, 0.5–200 ng/mL, 0.1–200 ng/mL, 0.1–200 ng/mL, respectively.
The AR ingredient levels in the plasma are presented as the mean + standard deviation. Pharmacokinetic parameters of plasma AR ingredients, such as the Cmax, AUC0-last, were calculated by non-compartmental analysis using the Phoenix WinNonlin software (Certara L.P., St. Louis, MO, USA). The concentration data were pooled per each time point; then, the mean concentration–time data were subjected to the non-compartmental analysis.

[2] = tested on: LPS-induced NO production in BV-2 microglial cells; parameters: method as in PMID 18293448; conditions: cited from earlier work
[3] = male, Sprague-Dawley, rat, in vivo, po, 1 g/kg
[4] = male, Sprague-Dawley, rat, in vivo, po, 2 g/kg

SMILES	Effect on LPS-induced NO production in BV-2 microglial cells [2]	AUC(0-t) [1, 3] [ng·h/mL]	Cmax [1, 3] [ng/mL]	Tmax [1, 3] [min]	half-life [1, 3] [min]	k el [1, 3] [s⁻¹]	AUC(0-t) [1, 4] [ng·h/mL]	Cmax [1, 4] [ng/mL]	Tmax [1, 4] [min]	half-life [1, 4] [min]	k el [1, 4] [s⁻¹]	other results
CCC(=O)c1cc2c(cc1OC)OCO2 [Methyl kakuol]												AUC0-last ([1]; rat plasma, oral MBST 1 g/kg): 22.5 ng·h/mL; Cmax ([1]; rat plasma, oral MBST 1 g/kg): 26.7 ng/mL; Tmax ([1]; rat plasma, oral MBST 1 g/kg): 30 min; k el ([1]; rat plasma, oral MBST 1 g/kg): 0.000425 s⁻¹; t1/2 ([1]; rat plasma, oral MBST 1 g/kg): 27.1 min; AUC0-last ([1]; rat plasma, oral MBST 2 g/kg): 214 ng·h/mL; Cmax ([1]; rat plasma, oral MBST 2 g/kg): 98.2 ng/mL; Tmax ([1]; rat plasma, oral MBST 2 g/kg): 60 min; k el ([1]; rat plasma, oral MBST 2 g/kg): 0.000153 s⁻¹; t1/2 ([1]; rat plasma, oral MBST 2 g/kg): 75.6 min
C/C=C/C=C\CC/C=C/C=C/C(=O)NCC(C)C [Amide A, (2E,4E,8Z,10E)-N-isobutyl-2,4,8,10-dodecatetraenamide]	inhibitory effect											AUC(0-t) ([1]; male, Sprague-Dawley, rat plasma, oral MBST 1 g/kg, read-out: AUC0-last): 4.87 ng·h/mL; Cmax ([1]; male, Sprague-Dawley, rat plasma, oral MBST 1 g/kg, read-out: Cmax): 4.08 ng/mL; k el ([1]; male, Sprague-Dawley, rat plasma, oral MBST 1 g/kg, read-out: kel (converted)): 0.000211 s⁻¹; half-life ([1]; male, Sprague-Dawley, rat plasma, oral MBST 1 g/kg, read-out: t1/2 (converted)): 54.7 min; Tmax ([1]; male, Sprague-Dawley, rat plasma, oral MBST 1 g/kg, read-out: tmax): 30 min; AUC(0-t) ([1]; male, Sprague-Dawley, rat plasma, oral MBST 2 g/kg, read-out: AUC0-last): 18.4 ng·h/mL; Cmax ([1]; male, Sprague-Dawley, rat plasma, oral MBST 2 g/kg, read-out: Cmax): 6.07 ng/mL; k el ([1]; male, Sprague-Dawley, rat plasma, oral MBST 2 g/kg, read-out: kel (converted)): 6.58e-05 s⁻¹; half-life ([1]; male, Sprague-Dawley, rat plasma, oral MBST 2 g/kg, read-out: t1/2 (converted)): 175 min; Tmax ([1]; male, Sprague-Dawley, rat plasma, oral MBST 2 g/kg, read-out: tmax): 15 min
c1cc2c(cc1[C@H]1OC[C@H]3[C@@H]1CO[C@H]3c1ccc3c(c1)OCO3)OCO2 [Asarinin, (−)-Asarinin]		16.3	8.42	15	91.2	0.000127	38.6	14.7	15	176	6.58e-05	
c1cc2c(cc1[C@H]1OC[C@H]3[C@@H]1CO[C@@H]3c1ccc3c(c1)OCO3)OCO2 [Sesamin]	inhibitory effect	11.9	5.63	30	97.8	0.000118	28.7	9.44	15	179	6.44e-05	
